Measurements from ChEMBL document CHEMBL1212755, “Factors influencing pharmacokinetics of prophylactic posaconazole in patients undergoing allogeneic stem cell transplantation” (Antimicrob Agents Chemother, 2010).

Key:
Format in all cases: ADME, organism-based
[1] = Apparent oral clearance in patient without diarrhea undergoing allogenic hematopoietic stem cell transplantation; settings: human, in vivo
[2] = Apparent oral clearance in patient undergoing allogenic hematopoietic stem cell transplantation; settings: human, in vivo
[3] = Apparent volume of distribution in patient undergoing allogenic hematopoietic stem cell transplantation; settings: human, in vivo; read-out: Vc/F
[4] = Cmax in patient undergoing allogenic hematopoietic stem cell transplantation; settings: human, in vivo
[5] = Apparent volume of distribution in patient without diarrhea undergoing allogenic hematopoietic stem cell transplantation; settings: human, in vivo; read-out: Vc/F
Homo sapiens = species: Homo sapiens; assay: Drug level in patient undergoing allogenic hematopoietic stem cell transplantation; settings: in vivo
[6] = Apparent volume of distribution in patient with diarrhea undergoing allogenic hematopoietic stem cell transplantation; settings: human, in vivo; read-out: Vc/F
[7] = Apparent oral clearance in patient with diarrhea undergoing allogenic hematopoietic stem cell transplantation; settings: human, in vivo

CC[C@@H]([C@H](C)O)n1ncn(-c2ccc(N3CCN(c4ccc(OC[C@@H]5CO[C@@](Cn6cncn6)(c6ccc(F)cc6F)C5)cc4)CC3)cc2)c1=O [POSACONAZOLE]
CL/F [1]: 1120 mL/min | CL/F [2]: 1260 mL/min | Vd/F [3]: 835 L | Cmax [4]: 654 ng/mL | Vd/F [5]: 2250 L | Drug uptake (Homo sapiens): 411 µg/L | Vd/F [6]: 3800 L | CL/F [7]: 1890 mL/min
